Assay results taken from US12616681B2, “Compositions and methods for treating renal injury” (priority 2019, dated 2026).

Columns and labels:
[1] = test system: contrast-induced acute kidney injury (CIAKI) mice; assay: CIAKI mouse model: renal function (serum creatinine, NGAL, KIM-1); assay type: in vivo, C57/BL6 mice
Experimental: Female mice were injected with 10 gI/kg of Visipaque (iodixanol) via the tail vein. […] For inhibition of the EP4s, mice were treated with 0.2 mg/kg/day of ONO-AE3-208 by subcutaneous injection for 14 days. Serum and kidney tissue were collected 48 h after the iodixanol injection.
Renal function was assessed by determining the serum levels of creatinine (Arbor Assays, Ann Arbor, MI, USA), NGAL (R&D Systems), and KIM-1 (R&D Systems) at 48 h after the iodixanol injection.

[2] = test system: contrast-induced acute kidney injury (CIAKI) mice; assay: CIAKI mouse model: renal blood flow (laser Doppler flux); assay type: in vivo, C57/BL6 mice
Experimental: Total RBF was assessed by measuring renal Doppler flux using noninvasive laser Doppler flowmetry (PeriFlux System 5000, Perimed AB, Sweden). Laser Doppler probes were placed on the kidney surface to measure the renal flux. The flux was measured 48 h after CM administration. The relative increase represented the percentage increase in renal blood flow from baseline to peak for each test. Statistical significance was set as p<0.05.

[3] = test system: mice with ischemic AKI (bilateral renal IRI); assay: Renal IRI (ischemic AKI) mouse model: renal function markers; assay type: in vivo, C57/BL6 mice
Experimental: Briefly, mice were anesthetized with isoflurane using a vaporizer, and bilateral renal arteries were clamped for 30 min (2, 49). After the ischemic time, clamps were released to induce blood reperfusion. […] Serum and kidney tissue were collected 24 h after renal IRI. […] After reperfusion for 24 h, kidney tissues (˜20 mg) were homogenized in cold PBS containing indomethacin (10 μg/mL) and then centrifuged for 10 min at 12,000 rpm. Protein concentrations of supernatant were determined by BCA assay (ThermoFisher Scientific, Rockford, IL). The PGE2 level was measured using a PGE2 ELISA kit (R&D Systems, Minneapolis, MN) in triplicate. PGE2 levels were expressed as nanograms of PGE2 per milligram of protein. Renal function was assessed by determining the serum levels of blood urea nitrogen (BUN; Abcam), serum creatinine (Agilent 6410 LC-MS/MS, Agilent, Santa Clara, CA), lipocalin-2 (R&D Systems), and kidney injury molecule-1 (KIM-1; R&D Systems) after reperfusion for 24 h. Measurement of serum creatinine was by HPLC. Serum creatinine was assessed using an Agilent 6410 LC-MS/MS system coupled with an Agilent 1200 series HPLC system (Agilent). […] The mixture was centrifuged at 13,000 rpm for 10 min after vigorous vortex, and 1 μL of supernatant was then injected into the LC-MS/MS system. The chromatography separation was performed on a Hypersil GOLD C18 column (150×2.1 mm, 3 m, Thermo Scientific) using a mobile phase of 0.1% formic acid solution and acetonitrile [70:30 (vol/vol)]. The flow rate was 0.2 mL/min. Electrospray ionization was performed in the positive ion mode. The capillary voltage was set at 4,000 V. Nitrogen as the nebulizing gas was set at 15 psi, and the drying gas temperature was set at 300° C., with a flow rate of 6 L/min. The multiple-reaction monitoring mode using specific precursor/production transition was used for quantification. […] The peak areas for all analytes were integrated automatically using Agilent Mass Hunter Analysis software (version B.01.04).

[4] = test system: human renal proximal tubular epithelial cells (hRPTECs); assay: hRPTEC cell viability (MTT assay) with iodixanol; assay type: cell-based; details: iodixanol 50 mgI/mL, 24 h; PGE1 100 ng/mL, PGE2 100 nM vs CM vehicle; CM vs normal control
Experimental: 3-(4,5-Dimethyl thiazol-2-yl)-2,5-diphenyl tetrazolium bromide (MTT) assay was used to assess cell viability. The hRPTECs were cultivated in 96-well plates at a density of 10^5 cells/mL and then incubated for 24 h. […] Then, 10 µM MTT (Sigma-Aldrich) was added to each well for an additional 4 h. The blue MTT formazan precipitate was dissolved in 100 mL dimethyl sulfoxide. The absorbance at 540 nm was measured with a multi-well plate reader. Cell viability was expressed as a percentage of the no-treatment cells, as the mean value±standard deviation of the six independent experiments.

[5] = test system: contrast-induced acute kidney injury (CIAKI) mice; assay: CIAKI mouse model: necrotic and apoptotic cell death, gross findings; assay type: in vivo, C57/BL6 mice; details: 48 h after CM
Experimental: Kidneys were harvested at 48 h after the CM injection, fixed in 4% phosphate-buffered formalin, and embedded in paraffin. To evaluate necrosis, […] paraffin sections were stained with hematoxylin and eosin. Tubular injury was scored semi-quantitatively according to a system by a pathologist who examined at least 20 separate fields (400× magnification) in the outer medulla, which is the zone most sensitive to ischemic injury. The scoring system was as follows: 0, no damage; 1, patchy isolated unicellular necrosis; 2, tubular necrosis <25%; 3, tubular necrosis 25-50%; and 4, tubular necrosis >50%. At least 20 consecutive high-power fields per section were scored by two operators blind to the details of the experiment. To analyze the frequency of apoptosis, […] paraffin sections were subjected to terminal deoxynucleotidyl transferase-mediated dUTP nick-end labeling (TUNEL) assay (Millipore, Temecula, CA, USA) according to the manufacturer's protocol. Four […] paraffin sections were incubated with the TUNEL reaction mixture at 37° C. for 1 h, followed by incubation with a horseradish peroxidase-conjugated detection antibody. The signals were visualized using diaminobenzidine (Sigma-Aldrich). After counterstaining with Mayer's hematoxylin, TUNEL-positive cells were counted in at least five separate fields (640× magnification) in the outer medulla, and the apoptosis index (%, number of apoptosis cells/total number of cells) was calculated using GENASIS software.

[6] = test system: human renal proximal tubular epithelial cells (hRPTECs); assay: hRPTEC apoptosis by flow cytometry with iodixanol; assay type: cell-based
Experimental: Human renal proximal tubular epithelial cells (hRPTECs) were purchased from the American Type Culture Collection (#PCS-400-010TM, Manassas, VA, USA). These cells were grown in 75 cm^2 flasks in Renal Epithelial Cell Basal Medium (PCS-400-030TM, ATCCVR) supplemented with Renal Epithelial Cell Growth Kit (PCS-400-040TM, ATCCVR).
After the treatment described in the section above, the hRPTECs were pelleted by centrifugation at 1800 rpm for 10 min and incubated with annexin V fluorescein isothiocyanate and propidium iodide using an Apoptosis Detection Kit I (#556547, BD Biosciences, San Jose, CA, USA) according to the manufacture's instruction. Then quantification was conducted using a FACSC flow cytometer with Cell Quest software (BD Biosciences).

mice = assay: Induction of CIAKI by intravenous contrast media in mice; assay type: in vivo, C57/BL6 mice; details: 10 gI/kg iv; for Cr vs normal control / KIM-1 vs normal control / NGAL vs normal control: 48 h after administration
Experimental: The two different […] in terms of viscosity and osmolality were administered intravenously to 5 mice for each group. Ten grams of iodine per body weight (gI/kg) of each CM was injected by a 26-gauge syringe through the tail vein. The blood samples for the analysis of functional assessment of kidney injury such as Cr, NGAL, and KIM-1 were taken at 48 h after administration (FIGS. 10(A, B)).

[7] = test system: mice with ischemic AKI (bilateral renal IRI); assay: Renal IRI model: PGE2 (EP1-EP4) and adenosine A2A receptor expression; assay type: in vivo, C57/BL6 mice; details: 24 h post-IRI
Experimental: PGE2 receptors (EP1, EP2, EP3, and EP4) and adenosineA2A receptor mRNA levels were deter-mined by real-time PCR. Their protein levels were determined by Western blot assay and immunofluorescence analysis.

[8] = test system: mice with ischemic AKI (bilateral renal IRI); assay: Renal IRI model: renal vasodilation and renal Doppler flux (RBF); assay type: in vivo, C57/BL6 mice; details: 24 h following IRI
Experimental: The inner arteriolar area of the outer medulla was determined using α-smooth muscle actin (α-SMA)-stained sections. Kidneys were removed without perfusion under inhalational isoflurane anesthesia, divided into three pieces horizontally, immediately fixed in 10% formalin, and then embedded in paraffin. The inner area of α-SMA-positive vessels in the outer medulla was measured using ImageJ. The results are expressed as average areas of renal arteries in the outer medulla. As a surrogate for RBF, we used noninvasive laser Doppler flowmetry (periflux system 5000, Perimed) to measure flux, placing laser-Doppler probes at a fixed position on the kidney surface and recording renal cortical measurements. […] The relative increase represents the percent increase in RDF from baseline to peak for each test.

[9] = test system: mice with ischemic AKI (bilateral renal IRI); assay: Renal IRI model: necrotic and apoptotic cell death, gross pathology; assay type: in vivo, C57/BL6 mice; details: 24 h after renal IRI; 5 mg/kg ip three times
Source text: To evaluate necrosis, 5-μm-thick paraffin sections were stained with hematoxylin and eosin. Tubular injury of individual slides was scored semi-quantitatively according to a scoring system by a pathologist in a blinded manner. The scoring system was as follows: 0, no damage; 1, patchy isolated unicellular necrosis; 2, tubular necrosis <25%; 3, tubular necrosis 25-50%; and 4, tubular necrosis >50%. To analyze the frequency of apo ptosis, 5-μm-thick paraffin sections were subjected to a TUNEL assay (Millipore, Temecula, CA) according to the manufacturer's protocol. TUNEL-positive cells were counted in at least five separate fields (64 magnification) in the outer medulla, and the apoptosis index (in %, number of apoptosis cells/total number of cells) was calculated using GENASIS software.

[10] = test system: mice with ischemic AKI (bilateral renal IRI); assay: Renal IRI model: cAMP, AMP and adenosine levels; assay type: in vivo, C57/BL6 mice; details: 24 h post-IRI, vs sham mice
Experimental: After reperfusion for 24 h, kidney tissues were harvested, homogenized in 10 volumes of 0.1 M HCl, and centrifuged for 10 min at 12,000 rpm. cAMP levels in kidney tissues and serum were measured using a cAMP Complete ELISA kit (Enzo Life Science, Farmingdale, NY). AMP and adenosine in kidney tissue were assessed by Agilent 6410 LC-MS/MS. Serum adenosine was measured using an assay kit (Abnova, Walnut, CA).

[11] = test system: mice with ischemic AKI (bilateral renal IRI); assay: Renal IRI model: proinflammatory cytokines and HMGB1; assay type: in vivo, C57/BL6 mice; details: 24 h after renal IRI, vs IRI-vehicle mice
Experimental: Inflammatory cytokine mRNA and protein levels were measured by real-time PCR and ELISA. Kidney tissue and serum were harvested after reperfusion for 24 h. Total RNA was extracted from frozen kidney tissue using TRIzol reagent (ThermoFisher Scientific) according to the manufacturer's protocol. RNA was converted to cDNA using oligo-dT primers. IL-17, TNF-α, and IL-1b mRNA levels were determined by real-time PCR. Serum IL-17 (R&D Systems), TNF-α (R&D Systems), and IL-10 (R&D Systems) were measured using commercial ELISA kits according to the manufacturer's instructions.

[12] = iodixanol 10 gI/kg + vehicle, 48 h after CM

## CC(C(=O)Nc1cc(C#N)ccc1CCCC(=O)O)c1ccc(F)c2ccccc12 (stereo not drawn) [ONO-AE3-208]
[1]; CIAKI mice (FIG. 15E), SW033291 line = CM + SW033291, ONO-AE3-208 line = CM + ONO-AE3-208 + SW033291
  serum creatinine, absence or presence of ONO-AE3-208: 1.51 ± 0.31 mg/dL
[1]; CIAKI mice (FIG. 15F), SW033291 line = CM + SW033291, ONO-AE3-208 line = CM + ONO-AE3-208 + SW033291
  serum NGAL, absence or presence of ONO-AE3-208: 229.85 ± 27.12 ng/mL
[1]; CIAKI mice (FIG. 15G), SW033291 line = CM + SW033291, ONO-AE3-208 line = CM + ONO-AE3-208 + SW033291
  serum KIM-1, absence or presence of ONO-AE3-208: 0.85 ± 0.26 ng/mL
[2]; ONO-AE3-208 with SW033291 (FIG. 15H)
  increase in RBF by SW033291 treatment: blocked the increase
[3]; ONO-AE3-208 10 mg/kg co-administered with the three-dose schedule of SW033291 in IRI mice
  beneficial effects of SW033291 on BUN, serum creatinine, serum Kim-1 and RDF-inferred RBF: substantially blocked

## CCCCC[C@H](O)/C=C/[C@H]1[C@H](O)CC(=O)[C@@H]1CCCCCCC(=O)O [PGE1, prostaglandin E1]
[4]
  cell viability (MTT), in words: did not show any difference
[1]; CIAKI mice, 48 h after CM
  serum creatinine, effect in words: decreased
[2]; 48 h after CM
  preservation of RBF from CM-induced reduction, in words: did not
[5]
  TUNEL-positive cell proportions vs CIAKI mice, in words: significantly lower
  renal injury score, effect in words: No reduction
  vascular congestion in the outer medullary region (gross findings): prominent vascular congestion
[6]; PGE1 100 ng/mL with iodixanol 50 mgI/mL
  apoptotic rate vs CM vehicle group, in words: no differences

## CC(=O)N(CC(O)CN(C(C)=O)c1c(I)c(C(=O)NCC(O)CO)c(I)c(C(=O)NCC(O)CO)c1I)c1c(I)c(C(=O)NCC(O)CO)c(I)c(C(=O)NCC(O)CO)c1I (stereo not drawn) [Visipaque, iodixanol]
[4]
  cell viability (MTT), in words: significantly lower
[1]; [12]
  serum KIM-1 in CM-treated mice: 1.41 ± 0.41 ng/mL
  serum NGAL in CM-treated mice: 299.71 ± 38.64 ng/mL
  serum creatinine in CM-treated mice: 1.94 ± 0.24 mg/dL
[6]; iodixanol 50 mgI/mL, 24 h
  increase of apoptosis rate of hRPTECs in the CM group compared to the normal group: more than 2.5 times
mice; 48 h
  necrosis and apoptosis (Renal injury score and TUNEL assay) vs normal control: significantly higher
mice
  Cr vs normal control: elevation
  KIM-1 vs normal control: elevation
  NGAL vs normal control: elevation

## CN(CC(O)CO)C(=O)c1c(I)c(NC(=O)C(CO)CO)c(I)c(C(=O)N(C)CC(O)CO)c1I (stereo not drawn) [Xenetix]
mice
  Cr vs normal control: significant increase
  KIM-1 vs normal control: did not show significant differences
  NGAL vs normal control: did not show significant differences

## COc1ccc2c(c1)c(CC(=O)O)c(C)n2C(=O)c1ccc(Cl)cc1 [indomethacin, reference compound]
[7]
  EP1 receptor mRNA levels: increased
  EP4 receptor mRNA levels: reduced
  levels of EP2 receptors: no effect
  levels of EP3 receptors: no effect
[3]; 24 h after renal IRI, vs IRI-vehicle mice, dosing before and after IRI
  BUN (serum): increase
[8]
  RDF-inferred RBF: reduced
[9]
  tissue congestion in the outer medulla (gross pathology): worsened
[10]
  renal cAMP: reduced
[11]
  HMGB1 levels in kidney tissue: increased
